Measured values taken from US20060040854A1, “Prostate hyperplasia therapy” (Board of Regents, The University of Texas System, priority 2004, published 2006).

How the values were obtained:
[1] = system: androgen-induced prostatic enlargement in rats; assay: Androgen-induced prostatic enlargement in castrated rats, finasteride vs insulin-6; type: in vivo
Description: The efficacy of insulin-6 in reducing prostate growth is evaluated against finasteride in a comparative therapeutic protocol adapted from Talpur et al,0 Mol Cell Biochem. 2003 August;250(1-2):21-6. Pharmaceutical finasteride and alpha blockers are used to treat symptoms of benign prostatic hyperplasia (BPH) and are known to cause severe adverse reactions. The present study compares the in vivo effects of finasteride on androgen-induced prostatic enlargement in rats with insulin-6. Non-castrated rats, have a mean prostate weight of 124 mg+/−8.8 (S.E.M.) compared to the 24.5 mg+/−1.9 (S.E.M.) of a castrated rat followed under the same regimen (p<0.01). […] In the two treatment groups, castrated rats receiving testosterone are given finasteride or insulin-6.

[2] = system: dogs with spontaneous benign prostatic hypertrophy
Description: The effect of insulin-6 on prostate size in benign prostatic hyperplasia is evaluated in a comparative study of finasteride and insulin-6 on size of the prostate gland and semen quality in dogs with benign prostatic hypertrophy in a protocol adapted from Sirinarumitr et al., J Am Vet Med Assoc. 2001 Apr. 15;218(8):1275-80.
Of […] dogs with BPH, five dogs are treated with insulin-6 or finasteride for 16 weeks (0.1 to 0.5 mg/kg [0.05 to 0.23 mg/lb] of body weight, PO, q 24 h); the other 4 receive a placebo. Prostatic diameter, measured radiographically, prostatic volume, measured ultrasonographically, semen quality, and serum DHT and testosterone concentrations are evaluated before and during treatment. After receiving the placebo for 16 weeks, the control dogs are treated with insulin-6 or finasteride for 16 weeks, and evaluations repeated.

[3] = system: symptomatic benign prostatic hyperplasia (BPH); assay: Prospective study of finasteride, insulin-6 and combination in symptomatic benign prostatic hyperplasia; type: in vivo; conditions: men with BPH
Description: A prospective study is used to evaluate the therapeutic effect of finasteride, insulin-6, and a combination of finasteride and insulin-6 drugs for symptomatic benign prostatic hyperplasia (BPH). In a protocol adapted from Kuo (Urol Int. 1998;60(2):85-91), 190 men suffering from severe prostatism are subjected to study.
Patients are assessed by IPSS symptom score, digital rectal examination, transrectal sonography of the prostate, uroflowmetry and residual urine. The patients are randomly selected for medical treatment with insulin-6 (n=71), finasteride 5 mg q.d. (n=54), and a combination (n=65). Clinical assessments are carried out before treatment and 3 and 6 months after starting treatment. Patients who can not complete the treatment and those with prostatic cancer are excluded from the final statistics. The quality of life after 6 months of treatment and side effects are also assessed.

## CC(C)(C)NC(=O)[C@H]1CC[C@H]2[C@@H]3CC[C@H]4NC(=O)C=C[C@]4(C)[C@H]3CC[C@]12C [finasteride]
[1]; castrated rats receiving testosterone plus treatment
  size of the prostate: decrease the size of the prostate to roughly the same size as in the non-castrated rats
[2]; dog, in vivo
  semen quality: do not adversely effect
  semen volume: decrease semen volume
[2]; dogs with BPH, 16 weeks, 0.1 to 0.5 mg/kg PO q 24 h
  serum DHT concentration, mean percentage decrease: 58%
[2]; dogs with BPH, 16 weeks, 0.1 to 0.5 mg/kg PO q 24 h, measured radiographically
  prostatic diameter, mean percentage decrease: 20%
[2]; dogs with BPH, 16 weeks, 0.1 to 0.5 mg/kg PO q 24 h, measured ultrasonographically
  prostatic volume, mean percentage decrease: 43%
[3]; after 6 months of treatment
  quality of life after treatment: satisfactory
[3]; at 3 and 6 months
  IPSS symptom score: Improvement in IPSS is noted
[3]; at 6 months
  Maximal flow rate (Qmax): significant increase in Qmax
  prostatic volume: found to decrease

## C[C@]12CC[C@H]3[C@@H](CCC4=CC(=O)CC[C@@]43C)[C@@H]1CC[C@@H]2O [testosterone]
[1]; castrated rats given testosterone, S.E.M. 31.7, p<0.01
  mean prostate weight: 250.0 mg
